# Test results published in patent publication US20100311714A1, “1H-IMIDAZO[4,5-c]QUINOLINONE COMPOUNDS” (priority 2009, published 2010).
# What was measured:
# [1] = High-throughput equilibrium solubility at pH 6.8; type: physicochemical; details: pH 6.8, aqueous buffer, thermodynamic from solid; read-out: HT-Eq Sol/pH 6.8
# How it was run: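 Solubility was measured at pH 6.8 following the cited Zhou et al. (2007) procedure.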
# [2] = system: PKB Ser473 phosphorylation in Rat1-myr-HA-p110 alpha cells; experiment: Reverse protein array, PKB Ser473 phosphorylation in Rat1-myr-HA-p110 alpha cells; type: cell-based; details: Rattus norvegicus, 0.5 h, 30 minutes compound incubation, read-out: p-PKB/IC50_alpha
# [3] = system: PKB Ser473 phosphorylation in Rat1-myr-HA-p110 delta cells; experiment: Reverse protein array, PKB Ser473 phosphorylation in Rat1-myr-HA-p110 delta cells; type: cell-based; details: Rattus norvegicus, 0.5 h, 30 minutes compound incubation, read-out: p-PKB/IC50_delta
solubility thermodynamic [1] [µg/mL],IC50 [2] [nM],IC50 [3] [nM],Compound
20,< 4.57,37.9,"CNc1ncc(-c2ccc3ncc4c(c3c2)n(-c2ccc(F)nc2C)c(=O)n4C)cc1C(F)(F)F [Example 7.13, 1-(6-Fluoro-2-methyl-pyridin-3-yl)-3-methyl-8-(6-methylamino-5-trifluoromethyl-pyridin-3-yl)-1,3-dihydro-imidazo[4,5-c]quinolin-2-one]"
175,5.2,< 4.57,"CCNc1cc(-c2ccc3ncc4c(c3c2)n(-c2ccc(C)nc2C)c(=O)n4C)cnc1C [Example 14.6, 1-(2,6-Dimethyl-pyridin-3-yl)-8-(5-ethylamino-6-methyl-pyridin-3-yl)-3-methyl-1,3-dihydro-imidazo[4,5-c]quinolin-2-one]"
10,< 4.57,< 4.57,"CCNc1cc(-c2ccc3ncc4c(c3c2)n(-c2ccc(OC)nc2Cl)c(=O)n4C)cnc1C [Example 18.1, 1-(2-Chloro-6-methoxy-pyridin-3-yl)-8-(5-ethylamino-6-methyl-pyridin-3-yl)-3-methyl-1,3-dihydro-imidazo[4,5-c]quinolin-2-one]"

# Continued, molecule first:
Compound,solubility thermodynamic [1] [µg/mL],IC50 [2] [nM],IC50 [3] [nM]
"CCNc1cc(-c2ccc3ncc4c(c3c2)n(-c2ccc(N(C)CCOC)nc2C)c(=O)n4C)cnc1C [Example 15.6, 8-(5-Ethylamino-6-methyl-pyridin-3-yl)-1-{6-[(2-methoxy-ethyl)-methyl-amino]-2-methyl-pyridin-3-yl}-3-methyl-1,3-dihydro-imidazo[4,5-c]quinolin-2-one]",140,4.8,6.8
"COc1cc(-c2ccc3ncc4c(c3c2)n(-c2ccc(N(C)C)nc2C)c(=O)n4C)cnc1CO [Example 19.4, 1-(6-Dimethylamino-2-methyl-pyridin-3-yl)-8-(6-hydroxymethyl-5-methoxy-pyridin-3-yl)-3-methyl-1,3-dihydro-imidazo[4,5-c]quinolin-2-one]",110,6.8,74.5
"CCOc1ccc(-c2ccc3ncc4c(c3c2)n(-c2ccc(N(C)C)nc2C)c(=O)n4C)cn1 [Example 19.3, 1-(6-Dimethylamino-2-methyl-pyridin-3-yl)-8-(6-ethoxy-pyridin-3-yl)-3-methyl-1,3-dihydro-imidazo[4,5-c]quinolin-2-one]",5,6.8,74.7
